Results from ChEMBL document CHEMBL1201862, “PubChem BioAssay data set” (2004).
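Method: 48-hour compound exposure of cells in 96-well plates, five concentrations, linear interpolation of endpoints. At the GI50, growth is halved.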 Activity calls are given as the source filed them. No stated cut-off is given here; in the data, active = GI50 up to about 1.1 µM and inactive = higher.

Tests used:
Assay in all cases: growth of human tumour cells (NCI), 48 h
[1] = test system: HOP-62
[2] = test system: HT-29
[3] = test system: K562
[4] = test system: LOX IMVI
[5] = test system: MOLT-4
[6] = test system: NCI-H226
[7] = test system: NCI-H460
[8] = test system: OVCAR-5
[9] = test system: OVCAR-8
[10] = test system: RPMI-8226
[11] = test system: RXF 393
[12] = test system: SK-MEL-28
[13] = test system: SK-MEL-5
[14] = test system: SNB-75
[15] = test system: SR
[16] = test system: T47D
[17] = test system: UACC-257
[18] = test system: UACC-62
[19] = test system: HL-60
[20] = test system: HCC 2998

Measured: GI50

CN(C)Cc1ccc(O)c(CN(C)C)n1
inactive: [1] > 100 µM | [2] > 100 µM | [3] > 100 µM | [4] > 100 µM | [5] > 100 µM | [6] > 100 µM | [7] > 100 µM | [8] > 100 µM | [9] > 100 µM | [10] > 100 µM | [11] > 100 µM | [12] > 100 µM | [13] > 100 µM | [14] > 100 µM | [15] > 100 µM | [16] > 100 µM | [17] > 100 µM | [18] > 100 µM

CCOC(=O)C(=[N+]=[N-])C(=O)C1(C(=O)OCC)CCN(C(=O)c2ccccc2)C1=O (stereo not given)
inactive: [19] > 100 µM | [1] > 100 µM | [2] > 100 µM | [4] > 100 µM | [5] > 100 µM | [6] > 100 µM | [7] > 100 µM | [8] > 100 µM | [9] > 100 µM | [11] > 100 µM | [13] > 100 µM | [14] > 100 µM | [16] > 100 µM | [17] > 100 µM | [18] > 100 µM

CC(CNC(N)=O)NC(N)=O (stereo not given)
inactive: [20] > 100 µM | [19] > 100 µM | [1] > 100 µM | [2] > 100 µM | [3] > 100 µM | [4] > 100 µM | [5] > 100 µM | [6] > 100 µM | [7] > 100 µM | [8] > 100 µM | [9] > 100 µM | [10] > 100 µM | [11] > 100 µM | [12] > 100 µM | [13] > 100 µM | [14] > 100 µM | [16] > 100 µM | [17] > 100 µM | [18] > 100 µM

CCn1c(=O)ccc2ccc(N(CCO)CCO)nc21
inactive: [20] > 100 µM | [1] > 100 µM | [2] > 100 µM | [3] > 100 µM | [5] 97.7 µM | [6] > 100 µM | [7] > 100 µM | [8] > 100 µM | [9] > 100 µM | [10] > 100 µM | [11] > 100 µM | [12] > 100 µM | [13] > 100 µM | [14] > 100 µM | [15] > 100 µM | [16] > 100 µM | [17] > 100 µM | [18] > 100 µM
